The text below walks through data of patent US6683103B2, “Sulfonamides for treatment of endothelin-mediated disorders” (Texas Biotechnology Corporation, priority 1997, dated 2004).

One series deals with T1, human ETA receptors (Homo sapiens, UniProt P25101).
T1 construct: endogenous in cells; host or cells: TE 671 cells (ATCC HTB 139)
T1 sequence (P25101 21-427): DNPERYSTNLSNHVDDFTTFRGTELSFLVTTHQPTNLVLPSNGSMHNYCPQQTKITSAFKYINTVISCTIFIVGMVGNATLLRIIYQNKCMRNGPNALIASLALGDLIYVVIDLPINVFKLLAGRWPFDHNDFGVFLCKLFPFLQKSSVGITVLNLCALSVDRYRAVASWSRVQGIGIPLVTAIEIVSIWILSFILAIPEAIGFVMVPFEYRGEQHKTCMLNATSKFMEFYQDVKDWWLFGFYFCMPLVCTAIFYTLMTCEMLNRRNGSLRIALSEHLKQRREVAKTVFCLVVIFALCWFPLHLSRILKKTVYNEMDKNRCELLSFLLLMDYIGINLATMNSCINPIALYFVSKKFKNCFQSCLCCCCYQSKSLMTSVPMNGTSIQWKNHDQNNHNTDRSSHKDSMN
Kind of series: Binding Test #1: inhibition of 125I-ET-1 binding to ETA receptors (TE 671 cell membranes). As to conditions: for IC50: read-out: ETA. An outline of the steps: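 Membranes from TE 671 cells (up to 8 μg protein) incubated with ¹²⁵I-ET-1 and compound (1 nM–100 μM final) in 30 mM HEPES pH 7.4, 150 mM NaCl, 5 mM MgCl2, 0.5% bacitracin, 16–18 h at 4 °C or alternatively at 24 °C. Nonspecific binding with 80 nM ET-1; bound pellet gamma-counted, % inhibition calculated, usually triplicate.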

A short description of the next series: Papp (Table 4). The class given is in vitro ADME.
Series [1] can be described thus: Oral half-life and peak plasma levels in rat. The class given is in vivo. The text has this: As used herein, bioavailability refers to the rate and extent of absorption. Methods for determining bioavailability are well known to those of skill in the art. For example, bioavailability of any of the compounds described herein can be determined empirically by administration of the compound to an animal, followed by taking blood samples over time and measuring the blood concentration of the compound. In vivo half life (t½) is defined as the time it takes for the concentration of the compound in the blood to be reduced by one-half. Estimations of the area under the curve for intravenous administration can be used to estimate the area under the curve for oral administration, yielding bioavailability data. See, e.q., Milo Gibal (1991) Biopharmaceutics and Pharmacology, 4th edition (Lea and Sediger).
Table 4 lists oral half-life, bioavailability, and in vivo activity of selected exemplary compounds. The in vivo activity was measured in a pulmonary hypertension model and is a measure of the activity of the compounds at selected dosages.

Series [2] has as its system Pulmonary Hypertension model. Kind of series: Pulmonary hypertension model, in vivo efficacy. More on the design: species or system rat; key to in vivo Efficacy: ++ effective at 5 mg/kg; − no effect at 5 mg/kg; + effective at 15 mg/kg. How it is done: As used herein, efficacy refers to the maximal effect that can be produced by a compound. Efficacy can be determined by methods known to those of skill in the art. For example, it can be determined by the properties of the compound and its receptor-effector system and is reflected in the plateau of the concentration-effect curve. In vivo efficacy refers to efficacy which is determined in an animal model. For example, in vivo efficacy of the compounds described herein can be determined by amelioration of hypoxia-induced pulmonary hypertension in rat. In this context, in vivo efficacy refers to the ability of a compound to restore an elevated pulmonary artery pressure to a normal value. […] J. Physiol. […] The in vivo activity was measured in a pulmonary hypertension model and is a measure of the activity of the compounds at selected dosages.

A further series has as its target T2, human ETB receptor (Homo sapiens, UniProt P24530).
T2 construct: expressed in transfected cells; host or cells: COS7 cells
T2 sequence (P24530 27-442): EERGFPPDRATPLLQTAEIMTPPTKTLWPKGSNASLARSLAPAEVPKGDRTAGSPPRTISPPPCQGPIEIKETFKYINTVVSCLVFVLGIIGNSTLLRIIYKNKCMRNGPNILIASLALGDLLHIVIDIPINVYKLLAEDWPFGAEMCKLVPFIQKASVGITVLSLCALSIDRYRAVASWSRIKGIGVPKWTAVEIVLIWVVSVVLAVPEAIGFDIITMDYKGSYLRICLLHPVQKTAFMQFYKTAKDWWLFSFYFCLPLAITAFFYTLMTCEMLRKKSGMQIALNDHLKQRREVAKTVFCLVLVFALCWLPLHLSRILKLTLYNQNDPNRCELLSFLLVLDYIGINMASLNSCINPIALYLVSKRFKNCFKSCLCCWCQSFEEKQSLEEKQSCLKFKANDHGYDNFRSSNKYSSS
Kind of series: Binding Test #2: inhibition of 125I-ET-1 binding to ETB receptors (transfected COS7 cell membranes). To be noted: Table 1, read-out: ETB. In outline:
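Competition with 125I-ET-1 for binding to membranes from COS7 cells transfected with human ETB receptor, used at 1 μg/50 μl binding buffer. Membranes prepared in HEPES pH 7.4 with aprotinin, including a DNase/MnCl2 step at 37 °C for 30 min.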

The subject of series [3] is DOCA-salt hypertensive rat. Briefly: Deoxycorticosterone acetate (DOCA)-salt hypertensive rat model. In kind it is in vivo. Here is the method:
E. Deoxycorticosterone Acetate (DOCA)-Salt Hypertensive Rat Model for Assessing in vivo Activity of Selected Compounds
Selected compounds disclosed herein have been tested for activity in the deoxycorticosterone acetate (DOCA)-salt hypertensive rat model. To perform these tests, silastic MDX4-4210 elastomer implants containing 47 mg (DOCA) were prepared according to the method of Ornmsbee et al. ((1973) the J. Pharm. Sci. 62:255-257). Briefly, DOCA is incorporated into silicon rubber implants for sustained release. To prepare the implants the DOCA is incorporated into unpolymerized silicone rubber, catalyst is added and the mixture is cast in a hemicylindrical shape.
Sprague Dawley rats (7-8 weeks old) were unilaterally nephrectomized under ketamine anesthesia and a DOCA-implant was placed on the left lateral dorsal abdomen of the animal. The rats were allowed to recover for three weeks. During recovery they were permitted free access to normal rat chow and 0.9% NaCl drinking solution in place of drinking water. The rats develop hypertension within 3 weeks.
All animals were used in the tests between 21 and 30 days post surgery. The mean arterial blood pressure in these animals ranged from 165-200 mm Hg.
On the day of experimentation, catheters were inserted under brevital anesthesia into the right femoral artery for measurement of blood pressure, and into the right femoral vein for administration of a selected compound. The animals were placed in a restrainer and allowed to recover for a minimum of 60 min or until a steady mean arterial blood pressure was recorded. At that time, the selected compound or control vehicle was administered either intravenously, as a 60 minute infusion, or orally by oral gavage. Blood pressure was recorded continuously for a further 10 hrs.

The test system of series [4] is ET-1-induced pressor response. Kind of series: ET-1-induced pressor responses in conscious, autonomically blocked rats. In kind it is in vivo, rat. To be noted: in 30 min at dosages as low as 30 mg/kg. How it is done:
Animals were placed in a restrainer and allowed to regain consciousness. Thirty minutes later autonomic blockade was administered (atropine methyl nitrate, 3 mg/kg, IV, followed by propranalol, 2 mg/kg, IV). An hour later animals received a bolus injection of vehicle (0.5 ml) followed thirty minutes later by intravenous bolus administration of ET-1 (Control, 1 μg/kg). Following recovery from this challenge, test-compounds were administered by intravenous bolus administration (0.5 ml) and then re-challenged with ET-1 thirty minutes later. Results are expressed as the percent inhibition of the ET-1-induced pressor response after administration of the test compound compared to the pressor response induced by the control ET-1 challenge. In some cases a third ET-1 challenge was administered ninety minutes after administration of the test compound.

For another series, the target named is ETA receptor. As to conditions: cited from earlier work.
Another series deals with ETB receptors. To be noted: tissues in which ETB receptors predominate; cited from earlier work.
Another series relates to isolated vascular strips. To be noted: contractile agent in isolated vascular strips; cited from earlier work.
Where [5] appears, read: Table 1, † incubation at 24° C.

The term melting point denotes the temperature, or range, at which the solid turns liquid. A word on the EC50: it is the midpoint of the concentration-response curve.

Like-named read-outs stand apart in the source and are kept apart here. Marks after values point to notes of the source that are not given here.

Compound `Cc1cc(C)c(N(C(=O)c2sccc2S(N)(=O)=O)c2onc(C)c2Cl)c(C)c1O` [Example 52, N^2-(4-Chloro-3-methyl-5-isoxazolyl)-N-(3-hydroxy-2,4,6-trimethylphenyl)-3-sulfamoyl-2-thiophenecarboxamide] came in with a melting point of 75 to 78 °C.

In the case of `CC(=O)c1cc(C)cc(C)c1NC(=O)c1sccc1S(=O)(=O)Nc1onc(C)c1Cl` [N-(2-acetyl-4,6-dimethylphenyl)-3-(((4-chloro-3-methyl-5-isoxazolyl)amino)sulfonyl)-2-thiophenecarboxamide], the ETA/ETB selectivity at human ETA receptors (Table 3) is 34000^∥. The IC50 on human ETA receptors (Table 3, † incubation at 24° C.) stood at 0.00055 µM. The “Papp (cell printed as %)” value in the series “Papp (Table 4)” is on record as 40%. In series [1] (in vivo), the “Peak Plasma Levels” value amounted to 57 µg/mL. The “POt½ in Rat” value in series [1] (oral) is 8.6 h. In addition, in [2] (0.3 mg/kg in vivo), the “in vivo Efficacy (footnote e)” value is on record as “^eeffective at 0.3 mg/kg in vivo”. Besides, the “in vivo Efficacy” value in series [2] (Pulmonary Hypertension model) is “++^e”.

For the compound `Cc1noc(NS(=O)(=O)c2ccsc2C(N)=O)c1Br` [N-(4-bromo-3-methyl-5-isoxazolyl)-2-(aminocarbonyl)thiophene-3-sulfonamide], the melting point is 168 to 170 °C.

As for `Cc1noc(NS(=O)(=O)c2c(Cc3ccc4c(c3)OCO4)sc3ccccc23)c1Br` [N-(4-bromo-3-methyl-5-isoxazolyl)-2-[3,4-(methylenedioxy)benzyl]benzo[b]thiophene-3-sulfonamide], the IC50 on human ETA receptors (Table 1, incubation at 4° C.) stood at 0.0015 ± 0.0014 µM; on human ETA receptors (setting [5]), 0.0074 ± 0.0011 µM; at human ETB receptor (incubation at 4° C.), 0.324 ± 0.78 µM; on human ETB receptor († incubation at 24° C.) it was 0.939 ± 0.262 µM. For the same compound, the “effect on blood pressure” value in series [3] is on record as “effective in decreasing blood pressure”.

`Cc1noc(NS(=O)(=O)c2ccsc2C(=O)Nc2ccccc2O)c1Br` [N-(4-bromo-3-methyl-5-isoxazolyl)-2-[(2-hydroxyphenyl)aminocarbonyl]thiophene-3-sulfonamide] registered a melting point of 42 to 44 °C.

`Cc1ccc(OCc2sccc2S(=O)(=O)Nc2onc(C)c2Br)cc1` [N-(4-bromo-3-methyl-5-isoxazolyl)-2-[(4-methylphenoxy)methyl]thiophene-3-sulfonamide]: the melting point was 128 to 130 °C.

The compound `Cc1noc(NS(=O)(=O)c2ccc(COCc3ccccc3)s2)c1Br` [N-(4-bromo-3-methyl-5-isoxazolyl)-5-(benzyloxymethyl)thiophene-2-sulfonamide] showed a melting point of 92 °C. For the same compound, the IC50 on human ETA receptors (setting [5]) was 12 µM. Moreover, the IC50 on human ETB receptor († incubation at 24° C.) is 9 µM.

Take `COc1ccc(NC(=O)c2sccc2S(=O)(=O)Nc2onc(C)c2Cl)c(C)c1` [N-(4-chloro-3-methyl-5-isoxazolyl)-2-[4-methoxy-2-methylphenyl)aminocarbonyl]thiophene-3-sulfonamide]: in series [4], the reduction of pressure entry is on record as “about 30%”.

With `Cc1ccc(NC(=O)c2sccc2S(=O)(=O)Nc2onc(C)c2Cl)cc1` [N-(4-chloro-3-methyl-5-isoxazolyl)-2-[(4-tolyl)aminocarbonyl]thiophene-3-sulfonamide], the “effect on blood pressure” value in series [3] is recorded as “effective in decreasing blood pressure”.

Regarding `COc1cc(C#N)c(NC(=O)c2sccc2S(=O)(=O)Nc2onc(C)c2Cl)cc1OC` [N-(4-chloro-3-methyl-5-isoxazolyl)-2-[{2-cyano-4,5-dimethoxyphenyl)aminocarbonyl]thiophene-3-sulfonamide], the reduction of pressure entry in series [4] is “about 30%”.

Regarding `Cc1noc(NS(=O)(=O)c2ccsc2CC(O)c2ccc3c(c2)OCO3)c1Cl` (stereo not drawn) [N-(4-chloro-3-methyl-5-isoxazolyl)-2-[β-hydroxy(3,4-methylenedioxy)phenylethyl]thiophene-3-sulfonamide], the IC50 was determined as 0.053 µM at human ETA receptors (setting [5]) and 16 µM at human ETB receptor († incubation at 24° C.). Further, the “effect on blood pressure” value in series [3] is given as “effective in decreasing blood pressure”.

Turning to `CC(=O)c1cc2c(cc1NC(=O)c1sccc1S(=O)(=O)Nc1onc(C)c1Cl)OCO2` [N-(4-chloro-3-methyl-5-isoxazolyl)-2-{[2-acetyl-4,5-(methylenedioxy)phenyl]aminocarbonyl}thiophene-3-sulfonamide], the IC50 amounted to 0.01 µM at human ETA receptors (setting [5]) and 31.6 µM at human ETB receptor († incubation at 24° C.). Besides, in series [4], the reduction of pressure result is listed as “about 30%”.

“cyclo(D-Glu-L-Ala-allo-D-lle-L-Leu-D-Trp) [BE-18257B]”: the values for the IC50 at ETA receptor (aortic smooth muscle), on ETA receptor (cultured aortic smooth muscle cells) and at ETA receptor (ventricle membranes) were 1.4 µM, 0.5 µM and 0.8 µM, respectively. In the series on ETB receptors, the “concentration up to which binding is not inhibited” value was over 100 µM.

As for “endothelin-1: potent twenty-one amino acid peptide vasoconstrictor”, the EC50 in the series with isolated vascular strips is 0.0004 µM.
